# Source: PubChem BioAssay AID179 (DTP/NCI, 2004)
# Calls of active or inactive are those of the source.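 The calls were made as follows: active = compounds giving half or more protection of infected cells from virus-caused growth loss, again on retest; inactive = the rest.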 Where a SMILES comes first, the peptide text is derived from it. Bridges are numbered along the chain shown (N, C = ends). [ ]: non-standard residue; d: D form. The star is where a group is joined. Cbz = O=C(OCc1ccccc1)*; Aib = CC(C)(N)C(=O)O; OBn = c1ccc(CO*)cc1; βAla = NCCC(=O)O
# Test system: CEM cells HIV-1 protection, formazan growth assay
# Assay: NCI AIDS Antiviral Assay
# Settings: for IC50: measured here: growth of uninfected CEM cells
# Summary of the method: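 Human CEM cells, uninfected and HIV-1-infected, exposed to five drug concentrations; growth measured by soluble formazan assay and scored as percent protection from infection, with protecting compounds retested.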
SMILES,EC50,IC50,outcome
N#CC1=C(S)N(C2OC(CO)C(O)C(O)C2O)C(c2ccccc2)=CC1c1ccco1 (centres undefined),> 200 µM,42.7 µM,–
N#CC1CC2(C1)OCCS2 (centres undefined),–,–,inactive
N.N.N.N.O=C([O-])CCl.O=C([O-])CCl.[Co+3].[O-][Cl+3]([O-])([O-])[O-],–,–,inactive
CC(=O)CC(=O)Nc1ccccc1.CC(=O)CC(=O)Nc1ccccc1.[Cu],> 200 µM,17.4 µM,–
CN1C(=O)[C@](O)(Cc2cccc(O)c2)N(C)C(=O)[C@@H]1Cc1c[nH]c2cccc([N+](=O)[O-])c12,–,–,inactive
COc1cccc2c1CCc1sc(CN3CCN(C)CC3)nc1-2,> 200 µM,30.2 µM,–
CC(C)N(C(=O)C12C3C4C5(C#N)C3C1(C#N)C5C42C#N)C(C)C (centres undefined),> 32.4 µM,> 32.4 µM,–
COc1cccc(CC2NCCc3c2[nH]c2ccccc32)c1 (centres undefined),> 251 µM,46.8 µM,–
CN1CCN(CCSc2nccc(-c3cc4ccccc4s3)n2)CC1,> 126 µM,31.6 µM,–
C1CN(P(N2CCOCC2)N2CCOCC2)CCO1,> 871 µM,> 871 µM,–
O=C(Nc1ccc(Cl)cc1)P(=O)(O)c1ccccc1,> 200 µM,> 200 µM,–
COC(=O)C1[C@H](C(=O)OC)C1(Br)CBr (some centres undefined),> 200 µM,97.7 µM,–
CC1=C(O)C(=O)C2C(=O)C1C(C)C2c1ccccc1 (centres undefined),> 195 µM,> 195 µM,–
CC(=O)[O-].N.N.N.N.[Co+3].[O-][Cl+3]([O-])([O-])[O-].[OH3+],–,–,inactive
O=C1/C(=C/c2cccc([N+](=O)[O-])c2)SC(=S)N1C1CC1,> 32.4 µM,> 32.4 µM,–
COC1=C(C)C(=O)c2nccc(C)c2C1=O,–,–,inactive
CC1OC(OC2CC(O)(C(=O)CO)Cc3c(O)c4c(c(O)c32)C(=O)c2ccccc2C4=O)CC(N)C1O (centres undefined),> 0.2 µM,0.0631 µM,–
CCCCCC/C=C\CCCCCCCCCC1=C(CN2CCN(C)CC2)C(=O)C=C(OC)C1=O,> 200 µM,1 µM,–
CC(C)=C1CC(C)(C)N=C1CCN1CCOCC1,> 200 µM,2.95 µM,–
Cc1nn(C(=O)CC(=O)Nc2ccccc2)c(C)c1N=Nc1ccccc1F,–,–,inactive
Cc1ccc(-n2cnc3c(N/N=C4\SCC(=O)N4c4ccccc4)ncnc32)cc1,–,–,inactive
CCCCCCNC(=O)/C(=C/c1ccc(OC)cc1)NC(=O)c1ccccc1,> 200 µM,102 µM,–

SMILES,EC50,IC50,outcome
O=C1C(c2ccc(Cl)cc2)=[N+]([O-])c2ccccc21,–,–,inactive
COc1ccc2c(c1)-c1c(c3ccccc3n1CCN1CCCCC1)CC2,> 100 µM,30.9 µM,–
CC1(C)NC(=O)C(NC(=O)C(CC(=O)OCc2ccccc2)NC(=O)OCc2ccccc2)CCCCNC(=O)CCNC1=O (centres undefined) (Cbz-D(OBn)K[Aib][βAla]; lactam 2-C; configuration not given here),> 200 µM,> 200 µM,–
C(=Nc1cnc2ccccc2c1)c1ccncc1,> 288 µM,66.1 µM,–
S=C1N(c2ccc(Cl)cc2)C2=C(N=Nc3ccccc3)C(=Nc3ccccc3S2)N1c1ccccn1,> 50.1 µM,10 µM,–
Nc1ccc(Cn2ccc3c4c(N)nc(N)nc4ccc32)cc1,–,–,inactive
CCOC(=O)N1CCN(c2ccc3c(C)cc(C)nc3n2)CC1,> 200 µM,> 200 µM,–
CN1CCN=C1c1nnn(-c2ccc([N+](=O)[O-])cc2)c1-c1ccccc1,57.5 µM,145 µM,–
O=C1OCC(O)C(C2OC(=O)c3cc(O)c(O)c(O)c3-c3c(O)c(O)c(O)c4c3C(=O)OC2C4c2c(O)cc(O)c3c2OC(c2ccc(O)c(O)c2)C(O)C3)OC(=O)c2cc(O)c(O)c(O)c2-c2c1cc(O)c(O)c2O (centres undefined),> 22.4 µM,> 22.4 µM,–
O=[N+]([O-])c1ccc2[nH]c(=S)[nH]c(=S)c2c1,> 200 µM,–,–
O=C(c1ccco1)N(Cc1ccco1)C(=S)Nc1ccccc1,> 200 µM,12 µM,–
COc1ccc(-n2c(=O)c3[nH]cnc3n(-c3ccc(OC)cc3)c2=S)cc1,> 200 µM,> 200 µM,–
CN(C)C=C1C=CC=C1,166 µM,> 200 µM,–
Cc1cc(=O)[nH]c(CNC(=O)c2cccc(C(=O)NCc3cc(=O)[nH]c(C)n3)c2)n1,> 617 µM,> 617 µM,–
COC(=O)[C@@H]1N2C(=O)C=NO[C@H]2SC1(C)C,> 1020 µM,> 1020 µM,–
NNC(=O)c1ccccc1SSc1ccccc1C(=O)NN,0.537 µM,3.55 µM,–
O=C(N[C@H]1CCC[C@H]1C(=O)Nc1ccc(C(F)(F)F)cc1)OCc1ccccc1,> 200 µM,> 200 µM,–
Cc1cn(COCCCS(=O)c2ccccc2)c(=O)[nH]c1=O (centres undefined),> 200 µM,> 200 µM,–
CC[N+]12CC[N+](CC)(CC1)C2,> 708 µM,> 708 µM,–
COc1c2c(cc3c(CCc4ccccc4)cc(=O)oc13)CCC(C)(C)O2,> 14.5 µM,> 14.5 µM,–
C=CCCCC1(C)CCCCNC1=O (centres undefined),186 µM,> 200 µM,–
CO/N=C\c1ccc2c(c1)Sc1ccccc1O2,> 200 µM,> 200 µM,–

SMILES,EC50,IC50,outcome
CC(=O)Nc1n[n+]([O-])c2cc(C)ccc2[n+]1[O-],> 200 µM,0.955 µM,–
CC(C)CC(NC(=O)C(Cc1ccc(O)cc1)NC(=O)C(CO)NC(=O)C(C)NC(=O)C(CO)NC(=O)C(CCC(N)=O)NC(=O)C(NC(=O)C(N)CCC(=O)O)C(C)C)C(=O)NC(CCCN=C(N)N)C(=O)NC(CCCCN)C(=O)O (centres undefined) (H-EVQSASYLRK-OH; configuration not given here),–,–,inactive
COc1cc2cc3c4c(cc(OC)c(OC)c4c2cc1OC)CCN3C(=O)CCC(=O)O,> 200 µM,123 µM,–
Cn1c(=O)c2c(nc3sc4nc5ccccc5nc4n32)n(C)c1=O,> 200 µM,> 200 µM,–
NC(CCC(=O)NC(CSSCC(NC(=O)CCC(N)C(=O)O)C(=O)O)C(=O)O)C(=O)O (centres undefined),> 200 µM,> 200 µM,–
O=S1(=O)C(c2cccc(F)c2)=C(O)c2cc3ccccc3nc21,–,–,inactive
COc1cccc2c1CCc1c(-c3ccc(F)cc3)cc(-c3ccc4ccccc4n3)nc1-2,> 200 µM,> 200 µM,–
O=C1Nc2ccccc2Cn2c1cc1oc(-c3ccccc3)cc12,> 200 µM,191 µM,–
COc1cc(C2C3=C(COC3=O)Oc3cc4c(cc32)OCO4)cc(OC)c1OC(C)=O (centres undefined),> 0.2 µM,0.0324 µM,–
Nc1nc(N)nc(-c2cnc3ccccc3c2)n1,> 200 µM,> 200 µM,–
Nc1nc(Cl)cc(NCC2(CO)CCC(OCc3ccccc3)C2)n1 (centres undefined),14.5 µM,17.8 µM,–
CN1OC(C#N)(C#N)C(C#N)(C#N)C1c1ccccc1 (centres undefined),> 200 µM,> 200 µM,–
COc1ccc2c(c1)c(=O)c1c(NCCNCCO)ccc3c(=O)n(CCN(C)C)c(=O)n2c31,> 0.0427 µM,0.0339 µM,–
S=C1NC(=NC2CCCCC2)C2(CCN(CCc3ccccc3)CC2)N1c1ccccc1,> 100 µM,53.7 µM,–
COc1cc2c3c(c1)SCC(=O)N3CCN2,> 200 µM,> 100 µM,–
O=C(O)CNS(=O)(=O)c1ccc(NC(=O)c2ccc(F)cc2)cc1,–,–,inactive
CCOP(=S)(NN=C1CCC(C(C)(C)C)CC1)OCC (centres undefined),> 200 µM,89.1 µM,–
Cc1nc(Nc2ccc(Cl)c(Cl)c2)sc1C(/C=C/c1ccc2c(c1)OCO2)=N/Nc1ccc([N+](=O)[O-])cc1[N+](=O)[O-],> 2.34 µM,> 2.34 µM,–
CC(=O)N(C(C)=O)c1cnc2c(nc3cc(C)ccn32)c1C,> 200 µM,52.5 µM,–
CCc1ccccc1NC(=O)/C(N=O)=C(/C)O,> 151 µM,> 151 µM,–
CCN(CC)CCC(=O)NC1c2ccccc2Oc2ccccc21,> 398 µM,219 µM,–
C=CCNC(=O)ON1C(=O)CCC1=O,> 1260 µM,> 1260 µM,–

SMILES,EC50,IC50,outcome
CNC(=O)CNC(=O)CCC(=O)OC,> 200 µM,> 200 µM,–
O=P(O)(O)OP(=O)(O)O.[NH-]CC[NH-].[NH-]CC[NH-].[Pd+2].[Pd+2],> 200 µM,102 µM,–
S=c1n(-c2ccc(Cl)cc2)c2/c(=N\Nc3cc(Cl)ccc3Cl)c(n1-c1ccccn1)=NCCN=2,> 200 µM,> 200 µM,–
COc1ccc2[nH]c3c(c2c1)[C@H](C)C[C@@H]1C(=O)N(c2ccccc2)C(=O)[C@H]31,–,–,inactive
O=C(c1ccncc1)n1nc(-c2ccccc2)c(N=Nc2ccccc2[N+](=O)[O-])c1-c1ccccc1,> 39.8 µM,> 39.8 µM,–
C#Cc1c(C)c(/C=C/C(C)=C/C=C/C(C)=C/C(=O)OC)n(C)c1C,> 22.4 µM,> 22.4 µM,–
CC(=O)NC1C(OCC(=O)N2CCCC2C(=O)NC(CCC(=O)NCCCCCNc2ccc([N+](=O)[O-])c3[nH]c4ccccc4c(=O)c23)C(N)=O)C(O)C(CO)OC1(C)OCc1ccccc1 (centres undefined),> 50.1 µM,1.02 µM,–
O=c1cc(CCl)nc2c3ncn(C4OC(CO)C(O)C4O)c3ncn12 (centres undefined),–,–,inactive
CCOC(=O)c1ccc(-c2onc(C)c2Br)[nH]1,> 200 µM,39.8 µM,–
C=CCNc1nc2c(s1)C(=O)c1ccccc1C2=O,> 13.8 µM,8.32 µM,–
CC12CCCN1C(=O)C1(C)CCCN1C2=O (centres undefined),> 200 µM,> 200 µM,–
C[n+]1c2ccccc2c(NC(CCCN=C(N)N)C(=O)O)c2ccccc21 (centres undefined),–,–,inactive
O=c1c(SCc2ccccc2)c(N2CCOCC2)cnn1-c1ccccc1,> 661 µM,575 µM,–
Cc1nn(C)c2c1C(=O)N(C)CC(=O)N2C,> 200 µM,> 200 µM,–
COc1ccc(/C=C(\NC(=O)c2ccccc2)C(=O)NN(C)c2ccnc3cc(Cl)ccc23)cc1OC,> 200 µM,56.2 µM,–
CN(C)CCNC(=O)c1cc(NC(=O)c2cc(NC(=O)CC/C=C3/[C@@H]4CC[C@H]3N=N4)cn2C)cn1C,> 200 µM,> 200 µM,–
O=C(c1ccco1)N(C(=S)N1CCN(c2ccccc2)CC1)c1ccccc1,> 18.2 µM,> 18.2 µM,–
CO/N=C(/C(=O)Nc1c[n+](CC(=O)[O-])cs1)c1csc(N)n1,> 145 µM,> 145 µM,–
Cc1cn(C2CCC(CO)O2)c(=O)[nH]c1=O (centres undefined),162 µM,> 200 µM,–
